From patent US6566073B1, “Materials and methods involving conditional retention domains” (Ariad Gene Therapeutics, Inc., priority 1998, dated 2003)

Key:
[1] = biological target: wild-type FKBP (Homo sapiens, UniProt P62942); experiment: Binding of bumped FKBP ligands to wild-type FKBP
Text: (§1) AP21998 and AP22542 are ligands of FKBP that have particular utility for CAD applications, because they bind with high affinity to F36M-FKBP but poorly to the wild-type protein, and are thus anticipated to lead to minimal interactions with the endogenous proteins during in vivo applications. The design and assay of such “bumped” ligands that target a hole created by truncating FKBP residue Phe36 have been described (Clackson et al., Proc. Natl. Acad. Sci. USA 95:10437-10442, 1998).

[2] = biological target: T1, F(36M)-hGH fusion protein in HT88 cells (stably transfected HT1080) (Homo sapiens, UniProt P01241+P62942, F37M); experiment: Ligand-dependent hGH secretion from HT88 cells (radioimmunoassay); assay type: cell-based; settings: FIG. 5A
T1 construct: 4 copies of the F(36M) domain; expressed in transfected cells; host or cells: HT1080 human fibrosarcoma cells, stably transfected pool HT88
T1 sequence (P62942+P01241 fused P62942:F37M): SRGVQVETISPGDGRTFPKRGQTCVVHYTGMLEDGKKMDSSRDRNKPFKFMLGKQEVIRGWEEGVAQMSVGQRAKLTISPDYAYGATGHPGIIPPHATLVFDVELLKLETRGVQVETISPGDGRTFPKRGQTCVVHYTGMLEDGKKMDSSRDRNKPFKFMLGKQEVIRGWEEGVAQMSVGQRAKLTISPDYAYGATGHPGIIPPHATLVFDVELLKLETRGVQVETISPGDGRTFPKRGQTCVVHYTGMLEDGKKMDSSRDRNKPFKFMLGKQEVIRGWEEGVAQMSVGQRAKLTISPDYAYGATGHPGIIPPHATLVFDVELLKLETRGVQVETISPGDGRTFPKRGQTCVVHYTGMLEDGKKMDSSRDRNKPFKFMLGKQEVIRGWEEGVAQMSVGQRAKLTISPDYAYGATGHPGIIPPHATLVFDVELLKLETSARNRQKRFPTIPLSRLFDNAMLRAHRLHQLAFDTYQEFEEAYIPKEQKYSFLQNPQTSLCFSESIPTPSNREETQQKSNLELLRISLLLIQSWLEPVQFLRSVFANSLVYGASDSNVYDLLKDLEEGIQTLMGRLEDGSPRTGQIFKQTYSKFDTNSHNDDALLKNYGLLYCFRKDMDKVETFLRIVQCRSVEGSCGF
Method: A vector driving the expression of this fusion protein, under control of the strong constitutive enhancer from CMV, was transiently transfected into HT1080 cells, a human fibrosarcoma cell line. Following overnight incubation of cells in the absence of ligand, the medium was washed away and fresh medium added, with or without ligand. Two hours later, the amount of hGH secreted into the medium was determined by radioimmunoassay. […] In contrast, in the presence of ligand, the amount of hGH secreted was several hundred-fold greater.
Pools of clones stably transfected with the F(36M)-hGH fusion protein (HT88 pool) were analyzed as described for the transiently transfected cells. […] To determine the constitutive rate of hGH secretion, the amount of hGH secreted in the presence of ligand was measured from cells that had already been exposed to ligand for 15 hours. As shown in lane 3, the constitutive rate of secretion from the HT88 cell line was very similar to the rate of secretion from the HT89 cell line which had been stably transfected with the wild type hGH protein (lane 4). Thus, in the presence of ligand the F(36M) domains have no detectable “retention” activity. […] This steady state level of stored F(36M)-hGH fusion protein can persist for months in the cell line with no apparent toxic effect. […]

[3] = biological target: T2, F(36M)4-hIn-m3 fusion protein in HT1080 cells (Homo sapiens, UniProt P01308+P62942, F37M/H34D/K53R/L86R/R55K); experiment: Regulated insulin secretion from transiently transfected HT1080 cells (C-peptide ELISA); assay type: cell-based; settings: increasing concentrations of ligand, 3 hours, FIG. 8
T2 construct: fusion of F(36M) domains to insulin results in a suppression of its secretion; expressed in transfected cells; host or cells: HT1080 cells, transient transfection
T2 sequence (P62942+P01308 fused P62942:F37M/P01308:H34D/P01308:K53R/P01308:R55K/P01308:L86R): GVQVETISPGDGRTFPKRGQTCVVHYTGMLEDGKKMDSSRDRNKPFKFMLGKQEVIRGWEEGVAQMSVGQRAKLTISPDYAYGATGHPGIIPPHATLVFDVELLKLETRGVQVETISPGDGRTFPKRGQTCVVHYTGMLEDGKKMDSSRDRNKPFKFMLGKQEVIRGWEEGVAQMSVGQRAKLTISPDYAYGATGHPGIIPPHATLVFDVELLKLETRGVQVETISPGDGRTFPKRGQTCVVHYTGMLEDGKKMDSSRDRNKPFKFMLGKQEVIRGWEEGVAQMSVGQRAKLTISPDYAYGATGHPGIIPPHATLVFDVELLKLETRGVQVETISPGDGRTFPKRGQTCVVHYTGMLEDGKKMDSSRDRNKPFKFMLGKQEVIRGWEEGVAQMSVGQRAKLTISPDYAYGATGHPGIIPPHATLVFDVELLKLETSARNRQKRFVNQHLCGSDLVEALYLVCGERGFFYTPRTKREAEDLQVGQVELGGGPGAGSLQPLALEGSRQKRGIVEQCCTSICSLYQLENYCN
Method: A vector driving expression of this F(36M)-insulin fusion protein (F(36M)4-hIn-m3) was transiently transfected into HT1080 cells. For comparison, vectors driving the expression of insulin protein alone, with (hIn-m3) or without (hIn-wt) the three mutations were also transfected. Following overnight incubation of cells in the absence of ligand, the medium was washed away and fresh medium added, without or with increasing concentrations of the monomeric ligand, AP21998. Three hours later, the amount of insulin secreted into the medium was determined by ELISA using an assay that recognizes an epitope within the C-peptide (ALPCO).

[4] = biological target: F36M-FKBP (Homo sapiens, UniProt P62942, F37M); experiment: Binding of bumped FKBP ligands to F36M-FKBP
F36M-FKBP, sequence (P62942 whole entry F37M): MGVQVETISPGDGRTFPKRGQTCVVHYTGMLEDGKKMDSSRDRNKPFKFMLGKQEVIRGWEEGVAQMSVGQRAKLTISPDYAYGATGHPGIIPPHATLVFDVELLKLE
Text: as §1

[5] = biological target: T3, F(36M)4-hIn-m3 fusion protein in implanted HT101-10p cells (Homo sapiens, UniProt P01308+P62942, F37M/H34D/K53R/L86R/R55K); experiment: Regulated insulin secretion in vivo: serum insulin and glucose in STZ-treated mice implanted with HT101-10p cells; set-up: species or system male nu/nu mice
T3 construct: fusion of F(36M) domains to insulin results in a suppression of its secretion; expressed in transfected cells; host or cells: HT101-10p cells (HT1080 stably transfected), implanted intramuscularly into male nu/nu mice
T3 sequence (P62942+P01308 fused P62942:F37M/P01308:H34D/P01308:K53R/P01308:R55K/P01308:L86R): as the sequence (P62942+P01308 fused P62942:F37M/P01308:H34D/P01308:K53R/P01308:R55K/P01308:L86R) above
Method: To test whether this system could be used to regulate secretion of insulin in vivo and effect changes in serum glucose levels, 2×10e7 HT101-10p cells were implanted intramuscularly into male nu/nu mice. HT101-10p cells were generated by stably transfecting HT1080 cells with a vector that drives expression of the F(36M)4-hIn-m3 fusion protein. Mice were made hyperglycemic by treatment 2 days earlier with 300 mg/kg streptozotocin (STZ). […] Approximately 1 hr after cells are implanted, animal received vehicle or the indicated dose of intravenous AP22542 (an analog of AP21998). Two hours later, serum samples were collected and assayed for insulin (Ultrasensitive human insulin-specific RIA, Linco) and glucose (Sigma) concentrations. […] In contrast, in animals treated with 10 mg/kg AP22542, serum insulin levels increase to ˜200 pM and serum glucose levels decline to ˜75 mg/dl.
To examine the kinetics of this ligand-induced reduction in serum glucose, STZ-treated mice implanted with 2×10e7 HT101-10p cells were administered a single dose of 30 mg/kg AP22542 intravenously. Serum glucose levels were measured at various times between 5 minutes and 10 hours later. […] This effect is transient as serum glucose levels rise to 350 mg/dl within 5 hours and return to baseline between 6 and 10 hours later. Since insulin secretion is dependent on the presence of the drug, administration of lower doses of AP22542 or of a ligand with a shorter half life should result in an even more transient production of secreted protein and resulting physiological effect. Conversely, administration of higher doses of AP22542 or of a ligand with a longer half life should result in a more prolonged production of secreted protein.

[6] = 1 mg/kg intravenous, 2 hours after dose, hyperglycemic mice

wild-type FKBP, sequence (P62942 whole entry, the tested form may be a part): as the sequence (P62942 whole entry F37M) above, with M37F counted along it

| Structure (SMILES) | binding to the wild-type protein [1] | concentration giving peak level of hGH secretion [2] [µM] | EC50 ([2]; read-out: half-maximal secretion of hGH) [nM] | insulin secretion into medium [3] | binding to F36M-FKBP [4] | serum glucose [5, 6] | serum insulin levels [5, 6] | serum insulin levels ([5]; 10 mg/kg intravenous, 2 hours after dose) [pM] | serum glucose levels ([5]; 10 mg/kg intravenous, 2 hours after dose, STZ baseline ~350 mg/dl) [mg/dL] | serum glucose levels ([5]; 30 mg/kg intravenous single dose, 5 and 15 minutes after administration) | serum glucose levels ([5]; 30 mg/kg intravenous single dose, by two hours, initial levels nearly 500 mg/dl) [mg/dL] | serum glucose ([5]; 30 mg/kg intravenous single dose, within 30 minutes) | serum glucose levels ([5]; 30 mg/kg intravenous single dose, within 5 hours) [mg/dL] |
| --- | --- | --- | --- | --- | --- | --- | --- | --- | --- | --- | --- | --- | --- |
| CC[C@H](C(=O)N1CCCCC1C(=O)O[C@H](CCc1ccc(OC)c(OC)c1)c1cccc(OCC(=O)NCCCN(C)C)c1)c1cc(OC)c(OC)c(OC)c1 (stereo partly drawn) [AP21998] | poorly | 2 to 3 | 600 | secretion is induced in the presence of monomer in a dose-dependent manner | high affinity |  |  |  |  |  |  |  |  |
| CC[C@H](C(=O)N1CCCC[C@H]1C(=O)O[C@H](CCc1ccc(OC)c(OC)c1)c1cccnc1)c1cc(OC)c(OC)c(OC)c1 [AP22542, 1-[2(S)-(3,4,5-trimethoxyphenyl)-butyryl]-piperdine-2(S)-carboxylic acid, 3-(3,4-Dimethoxyphenyl)-1-pyridin-3-yl-propan-1(R)-ol ester] | poorly |  |  |  | high affinity | no change in serum glucose | fails to increase serum insulin levels above the lower limit of detection | ~200 | ~75 | indistinguishable from animals treated with vehicle | 50 | significant reduction in serum glucose | 350 |
